According to PubChem BioAssay (NCI):
Where “and” joins values, the source holds several entries; their conditions need not be identical. Equal entries are not always repeated.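 Briefly, cells in 96-well plates were exposed to five compound concentrations for 48 h, and endpoints were estimated by linear interpolation. GI50 = concentration required for 50% inhibition of growth. TGI: concentration producing complete growth inhibition.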

Experiments:
Test in all cases: inhibition of tumour cell growth, NCI panel, 48 h
TK-10 renal = system: TK-10 renal
MDA-MB-231 breast = system: MDA-MB-231 breast
IGROV1 ovarian = system: IGROV1 ovarian
RPMI-8226 leukemia = system: RPMI-8226 leukemia
PC-3 prostate = system: PC-3 prostate
SK-OV-3 ovarian = system: SK-OV-3 ovarian
NCI-H23 lung = system: NCI-H23 lung
SNB-19 CNS = system: SNB-19 CNS
SF-268 CNS = system: SF-268 CNS
MDA-N = system: MDA-N

Row | SMILES | TGI (TK-10 renal) | TGI (MDA-MB-231 breast) | TGI (IGROV1 ovarian) [µM] | TGI (RPMI-8226 leukemia) [µM] | TGI (PC-3 prostate) | TGI (SK-OV-3 ovarian) [µM] | TGI (NCI-H23 lung) | TGI (SNB-19 CNS) | TGI (SF-268 CNS) | TGI (MDA-N) | GI50 (TK-10 renal) [µM] | GI50 (MDA-MB-231 breast) [µM] | GI50 (RPMI-8226 leukemia) | GI50 (NCI-H23 lung) [µM] | GI50 (SNB-19 CNS) [µM] | GI50 (SF-268 CNS) [µM] | GI50 (MDA-N) [µM]
1 | O=C(Nc1noc(-c2ccccc2)n1)c1ccccc1CNc1noc(-c2ccccc2)n1 | > 100 µM | > 100 µM | > 100 | > 100 | > 100 µM | > 100 | > 100 µM | > 100 µM | > 100 µM | > 100 µM |  |  |  |  |  |  | 
2 | COc1cc2c(cc1Cc1c(F)cccc1Cl)nc(-c1c(F)cccc1Cl)n2Cc1c(F)cccc1Cl | > 100 µM | > 100 µM | > 100 | > 100 | > 100 µM | 70 | > 100 µM | > 100 µM | > 100 µM | > 100 µM |  |  |  |  |  |  | 
3 | CC(=O)OC1C(COC(=O)c2ccccc2)OC(Nc2ncc(-c3ccc(Br)cc3)s2)C(OC(=O)c2ccccc2)C1OC(=O)c1ccccc1 (stereo unspecified) | > 100 µM | > 100 µM | > 100 | > 100 | > 100 µM | > 100 | > 100 µM | > 100 µM | > 100 µM | > 100 µM |  |  |  |  |  |  | 
4 | COC1=C(C)C(=O)c2c(c(COC(N)=O)c3n2CC(OC(C)=O)C3OC(C)=O)C1=O (stereo unspecified) | 1.56 µM | 0.515 µM | 0.402 | 1.36 | 0.402 µM | 1.57 | 0.25 µM | 2.09 µM | 0.674 µM | 0.29 µM |  |  |  |  |  |  | 
5 | Cc1c2c(OCC3CCCCO3)nn(C)c(=O)c2c(C)n1-c1ccccc1 (stereo unspecified) | 45.4 µM | 32.2 µM | 37.8 | > 100 | 36 µM | 34.8 | 44.2 µM | 46.8 µM | 30.7 µM | 35.8 µM |  |  |  |  |  |  | 
6 | NS(=O)(=O)c1cccc(NC(=S)NC(=O)Nc2ccc(Cl)c(Cl)c2)c1 | > 100 µM | 38.5 µM | 45.4 | 41.7 | 41.2 µM | 54.1 | 34 µM | 58.2 µM | 56.4 µM | 38.2 µM |  |  |  |  |  |  | 
7 | COC(=O)/C(C#N)=C(/NCCN)Nc1ccccc1 | > 100 µM | > 100 µM | > 100 | > 100 | > 100 µM | > 100 | > 100 µM | > 100 µM | > 100 µM | > 100 µM |  |  |  |  |  |  | 
8 | O=C1NCN(c2ccccc2)C12CCN(CCCN1CCN(CCOC(c3ccc(F)cc3)c3ccc(F)cc3)CC1)CC2 | 3.2 µM | 4.43 µM | 4.24 | 4.95 | 10.9 µM | 4.61 | 9.69 µM | 6.57 µM | 3.79 µM | 3.65 µM |  |  |  |  |  |  | 
9 | COC(=O)[C@H](Cc1ccccc1)NC(=O)CCCCCCC(=O)NO | 72.5 µM | 65.3 µM | 57.5 | > 100 | 38.2 µM | 52.3 | > 100 µM | > 100 µM | 72.1 µM | 56.6 µM |  |  |  |  |  |  | 
10 | C=C(CN(C)C)C(=O)c1ccccc1[N+](=O)[O-] | 34.3 µM and 26.3 µM | 38 µM and 34.1 µM | 52.7 |  | 31.3 µM and 13.5 µM | > 86.8 | 32.7 µM and 66.1 µM | > 68.2 µM and 47.7 µM | 51.4 µM and 58.3 µM | 27.9 µM and 25.3 µM | 12.9 | 12.6 | 15.1 µM and 2.55 µM | 20.7 | 23.3 | 20.7 | 10.6
11 | CN(C)CC1CCC(CN(C)C)C1=O (stereo unspecified) | 28.2 µM | 4.18 µM | 15.4 | 3.33 | 4.58 µM | 30.6 | 12.9 µM | > 100 µM | 42.4 µM | 3.85 µM |  |  |  |  |  |  | 
12 | S=c1cc(-c2ccc3c(c2)OCO3)s[nH]1 | > 100 µM | > 100 µM | > 100 | > 100 | > 100 µM | > 100 | > 100 µM | > 100 µM | > 100 µM | > 100 µM |  |  |  |  |  |  | 
13 | CSc1n[nH]c(N)c1C(=O)Nc1ccccc1 | > 100 µM | > 100 µM | > 100 | > 100 | > 100 µM | > 100 | > 100 µM | > 100 µM | > 100 µM | > 100 µM |  |  |  |  |  |  | 
14 | C[n+]1c(-c2ccc(/C=C/C=N\NC(=O)c3ccc(C(=O)N/N=C\C=C\c4ccc(-c5cn6ccccc6[n+]5C)cc4)cc3)cc2)cn2ccccc21 | > 100 µM | > 58.8 µM | > 100 | > 84.6 | > 100 µM | > 100 | > 100 µM | > 100 µM | > 100 µM | > 100 µM |  |  |  |  |  |  | 
15 | CCOP(=O)(/C=C\n1ccc(N)nc1=O)OCC | > 100 µM | > 100 µM | > 100 | > 100 | > 100 µM | > 100 | > 100 µM | > 100 µM | > 100 µM | > 100 µM |  |  |  |  |  |  | 
16 | COc1cc(/C=C/C=C2\CC/C(=C\C=C\c3ccc(O)c(OC)c3)C2=O)ccc1O | > 100 µM | > 100 µM | > 100 | > 100 | > 100 µM | > 100 | > 100 µM | > 100 µM | > 100 µM | > 100 µM |  |  |  |  |  |  | 
17 | O=C1CSC2=NC3=C(COC/C3=C\c3ccc(Br)cc3)C(c3ccc(Br)cc3)N12 (stereo unspecified) | > 100 µM | > 100 µM | > 100 | > 100 | > 100 µM | > 100 | > 100 µM | > 100 µM | > 100 µM | > 100 µM |  |  |  |  |  |  | 
18 | CC(=O)c1ccc2c(c1)CC1(C2)Cc2ccccc2C1=O (stereo unspecified) | 91.4 µM | > 100 µM | > 100 | > 100 | > 100 µM | > 100 | > 100 µM | > 100 µM | > 100 µM | > 100 µM |  |  |  |  |  |  | 
19 | COC(=O)c1cc(C#N)[nH]c1-c1cc(Br)cs1 | 57.1 µM | 51.7 µM | 35.3 | 51.2 | 40.9 µM | 46 | 25.7 µM | 37.3 µM | 51 µM | 29.4 µM |  |  |  |  |  |  | 
20 | Oc1[nH]c2ccccc2c1N=NC(=S)Nc1ccc(Cl)cc1 | 94.1 µM | 99.6 µM | > 100 | > 100 | > 100 µM | > 100 | > 100 µM | > 100 µM | > 100 µM | > 100 µM |  |  |  |  |  |  | 
21 | C[C@]12CC[C@@H]3c4cc(I)c(O)cc4CC[C@H]3[C@@H]1CC[C@@H]2O | 27.6 µM | 25.3 µM | 20.5 | 37.7 | > 56.4 µM | 16.4 | 25.1 µM | 34.9 µM | 58.5 µM | 5.77 µM |  |  |  |  |  |  | 
22 | CC(C(=O)O)C(C)(O)C(=O)O (stereo unspecified) | > 100 µM | > 100 µM | > 100 | > 100 | > 100 µM | > 100 | > 100 µM | > 100 µM | > 100 µM | > 100 µM |  |  |  |  |  |  | 
23 | N#Cc1nc(NC(=O)c2ccccc2C(=O)O)c(C#N)[nH]1 | > 100 µM | > 100 µM | > 100 | > 100 | > 100 µM | > 100 | > 100 µM | > 100 µM | > 100 µM | > 100 µM |  |  |  |  |  |  | 
24 | Cc1ccc(C2=CC(=O)/C(=C\C(=O)c3ccc(Cl)cc3)O2)cc1 | 9.67 µM | 25.1 µM | 34.2 | 6.31 | 12.2 µM | 56.7 | 55.3 µM | > 100 µM | 36.3 µM | 16.2 µM |  |  |  |  |  |  | 
25 | CC(C)OC(=O)OCSc1ccccc1N=Cc1cccc([N+](=O)[O-])c1 | > 10 µM | > 10 µM | > 10 | > 10 | > 10 µM | > 10 | > 10 µM | > 10 µM | > 10 µM | > 10 µM |  |  |  |  |  |  | 
